Test results as given in patent US9809598B2 (Merck Patent GmbH, priority 2014, dated 2017).

Tests used:
TNKS1 = biological target: T1, TNKS1 (Homo sapiens, UniProt O95271); assay: TNKS1 activity ELISA (autoparsylation assay); format: biochemical; settings: GST-tagged Tnks-1 (1023-1327 aa)
T1 construct: GST-tagged Tnks-1 (1023-1327 aa, prepared in-house); made in house
Method in brief: (§1)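 GST-tagged TNKS1 or TNKS2 captured on glutathione plates and allowed to auto-PARsylate with biotinylated NAD with or without compound. Biotin-ADP-ribosylated enzyme detected by streptavidin-HRP and luminescence; IC50 relative to inhibitor-free reaction.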

TNKS2 = biological target: T2, TNKS2 (Homo sapiens, UniProt Q9H2K2); assay: TNKS2 activity ELISA (autoparsylation assay); format: biochemical; settings: GST-tagged Tnks-2 (873-1166 aa); read-out: IC50 [M] TNKS2 ELISA
T2 construct: GST-tagged Tnks-2 (873-1166 aa, prepared in-house); made in house
T2 sequence (Q9H2K2 873-1166): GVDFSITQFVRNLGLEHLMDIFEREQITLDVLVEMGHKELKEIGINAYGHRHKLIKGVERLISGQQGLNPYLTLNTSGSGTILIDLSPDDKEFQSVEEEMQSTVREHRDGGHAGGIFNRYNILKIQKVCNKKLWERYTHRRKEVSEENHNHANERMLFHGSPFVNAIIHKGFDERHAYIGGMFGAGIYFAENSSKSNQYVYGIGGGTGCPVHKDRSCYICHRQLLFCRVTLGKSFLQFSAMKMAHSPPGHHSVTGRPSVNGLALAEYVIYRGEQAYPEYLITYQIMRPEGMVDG
Method in brief: as §1

Tankyrases = settings: read-out: EC50 [M] TNKS cellular assay; DLD1 cells, 24 hours, Axin2 increase
PARP-1 = biological target: T3, PARP-1 (Homo sapiens, UniProt P09874); assay: PARP-1 autoparsylation assay (HTRF); format: biochemical; settings: His-tagged Parp-1, autoparsylation HTRF
T3 construct: purchased Enzo Life Sciences GmbH, Lörrach, Germany
T3 sequence (P09874 whole entry): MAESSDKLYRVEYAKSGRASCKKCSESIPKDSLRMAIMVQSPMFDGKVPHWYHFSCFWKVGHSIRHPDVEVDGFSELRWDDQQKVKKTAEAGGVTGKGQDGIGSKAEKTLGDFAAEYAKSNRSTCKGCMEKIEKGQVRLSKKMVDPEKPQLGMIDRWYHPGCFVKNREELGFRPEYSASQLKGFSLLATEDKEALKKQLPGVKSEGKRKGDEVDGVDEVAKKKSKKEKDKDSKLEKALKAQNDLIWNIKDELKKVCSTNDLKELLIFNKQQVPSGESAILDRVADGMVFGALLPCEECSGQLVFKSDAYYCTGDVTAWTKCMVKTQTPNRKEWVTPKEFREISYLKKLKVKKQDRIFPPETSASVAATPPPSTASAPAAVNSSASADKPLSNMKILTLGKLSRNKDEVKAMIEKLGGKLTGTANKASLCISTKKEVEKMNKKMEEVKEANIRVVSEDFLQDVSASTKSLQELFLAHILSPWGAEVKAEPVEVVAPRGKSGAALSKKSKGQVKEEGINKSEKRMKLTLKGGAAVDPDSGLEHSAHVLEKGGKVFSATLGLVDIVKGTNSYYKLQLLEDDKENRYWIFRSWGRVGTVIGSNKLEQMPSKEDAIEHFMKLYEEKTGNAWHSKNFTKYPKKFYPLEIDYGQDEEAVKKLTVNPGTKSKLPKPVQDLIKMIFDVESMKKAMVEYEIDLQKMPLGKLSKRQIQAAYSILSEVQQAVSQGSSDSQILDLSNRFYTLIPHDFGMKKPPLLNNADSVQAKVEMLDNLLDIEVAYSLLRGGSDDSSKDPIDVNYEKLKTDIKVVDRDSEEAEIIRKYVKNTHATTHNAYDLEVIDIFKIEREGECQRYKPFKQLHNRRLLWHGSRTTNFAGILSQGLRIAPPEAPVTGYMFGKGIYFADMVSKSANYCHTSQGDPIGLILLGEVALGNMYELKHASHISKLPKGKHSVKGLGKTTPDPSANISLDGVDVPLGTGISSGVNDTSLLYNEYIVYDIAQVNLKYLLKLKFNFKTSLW
Method in brief: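 His-tagged enzyme auto-modifies itself using biotinylated NAD/NAD; product detected by TR-FRET between cryptate anti-His antibody and Xlent-streptavidin, as emission ratio.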

T1 sequence (O95271 1023-1327): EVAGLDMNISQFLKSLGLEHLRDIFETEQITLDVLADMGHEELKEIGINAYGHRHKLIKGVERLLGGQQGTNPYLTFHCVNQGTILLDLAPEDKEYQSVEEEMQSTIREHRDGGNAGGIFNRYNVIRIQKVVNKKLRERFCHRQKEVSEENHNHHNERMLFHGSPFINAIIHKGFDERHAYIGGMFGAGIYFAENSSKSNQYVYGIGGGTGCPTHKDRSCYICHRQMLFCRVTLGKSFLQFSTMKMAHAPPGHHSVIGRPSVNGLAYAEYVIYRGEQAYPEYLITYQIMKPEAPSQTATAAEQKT

COc1ccc(C(=O)C2CCN(C(=O)CCCc3nn4cccc4c(=O)[nH]3)CC2)cc1C [Compound C143, 2-{4-[4-(4-Methoxy-3-methyl-benzoyl)-piperidin-1-yl]-4-oxo-butyl}-3H-pyrrolo[2,1-f][1,2,4]triazin-4-one]
IC50 (TNKS1): 0.19 nM
IC50 (TNKS2): 1.6e-10 M
EC50 (Tankyrases): 1.7e-09 M
IC50 (PARP-1): 4800 nM

CC(C)(O)c1ccc(C(=O)C2CCN(C(=O)CCCc3nn4cccc4c(=O)[nH]3)CC2)cc1 [Compound C144, 2-(4-{4-[4-(1-Hydroxy-1-methyl-ethyl)-benzoyl]-piperidin-1-yl}-4-oxo-butyl)-3H-pyrrolo[2,1-f][1,2,4]triazin-4-one]
IC50 (TNKS1): 7.3 nM
IC50 (TNKS2): 3.5e-09 M
EC50 (Tankyrases): 8.3e-08 M
IC50 (PARP-1): 11000 nM

COc1ccc(C(=O)C2CCN(C(=O)CCCc3nn4c(C)ccc4c(=O)[nH]3)CC2)cc1F [Compound C147, 2-{4-[4-(3-Fluoro-4-methoxy-benzoyl)-piperidin-1-yl]-4-oxo-butyl}-7-methyl-3H-pyrrolo[2,1-f][1,2,4]triazin-4-one]
IC50 (TNKS1): < 0.1 nM
IC50 (TNKS2): < 1e-10 M
EC50 (Tankyrases): 8.1e-10 M
IC50 (PARP-1): 370 nM

COc1ccc(C(=O)C2CCN(C(=O)CCCc3nn4c(C)ccc4c(=O)[nH]3)CC2)cn1 [Compound C148, 2-{4-[4-(6-Methoxy-pyridine-3-carbonyl)-piperidin-1-yl]-4-oxo-butyl}-7-methyl-3H-pyrrolo[2,1-f][1,2,4]triazin-4-one]
IC50 (TNKS1): 0.28 nM
IC50 (TNKS2): 1.9e-10 M
EC50 (Tankyrases): 1.4e-09 M
IC50 (PARP-1): 770 nM

Cc1ccc2c(=O)[nH]c(CCCC(=O)N3CCC(c4cnc(N)c(C#N)c4)CC3)nn12 [Compound C149, 6-Amino-1′-[4-(7-methyl-4-oxo-3,4-dihydro-pyrrolo[2,1-f][1,2,4]triazin-2-yl)-butyryl]-1′,2′,3′,4′,5′,6′-hexahydro-[3,4′]bipyridinyl-5-carbonitrile]
IC50 (TNKS1): 0.38 nM
IC50 (TNKS2): 3.8e-10 M
EC50 (Tankyrases): 3.1e-09 M
IC50 (PARP-1): 770 nM

Cc1ccc2c(=O)[nH]c(CCCC(=O)N3CCC(c4cnc(N)c(-c5ncccn5)c4)CC3)nn12 [Compound C150, 2-[4-(6-Amino-5-pyrimidin-2-yl-3′,4′,5′,6′-tetrahydro-2′H-[3,4′]bipyridinyl-1′-yl)-4-oxo-butyl]-7-methyl-3H-pyrrolo[2,1-f][1,2,4]triazin-4-one]
IC50 (TNKS1): 0.23 nM
IC50 (TNKS2): 2.8e-10 M
EC50 (Tankyrases): 1.1e-09 M
IC50 (PARP-1): 1300 nM

Cc1ccc2c(=O)[nH]c(CCCC(=O)N3CCC(c4nnc(-c5ccccc5)o4)CC3)nn12 [Compound C151, 7-Methyl-2-{4-oxo-4-[4-(5-phenyl-[1,3,4]oxadiazol-2-yl)-piperidin-1-yl]-butyl}-3H-pyrrolo[2,1-f][1,2,4]triazin-4-one]
IC50 (TNKS1): 1.4 nM
IC50 (TNKS2): 9.3e-10 M
EC50 (Tankyrases): 1.9e-08 M
IC50 (PARP-1): 210 nM

Cc1ccc2c(=O)[nH]c(CCCC(=O)N3CCC(C(=O)c4ccc(F)cc4)CC3)nn12 [Compound C153, 2-{4-[4-(4-Fluoro-benzoyl)-piperidin-1-yl]-4-oxo-butyl}-7-methyl-3H-pyrrolo[2,1-f][1,2,4]triazin-4-one]
IC50 (TNKS1): 0.17 nM
IC50 (TNKS2): 1.6e-10 M
EC50 (Tankyrases): 1.7e-09 M
IC50 (PARP-1): 2000 nM

COc1ccc(C(=O)C2CCN(C(=O)CCCc3nn4c(C)ccc4c(=O)[nH]3)CC2)cc1C [Compound C154, 2-{4-[4-(4-Methoxy-3-methyl-benzoyl)-piperidin-1-yl]-4-oxo-butyl}-7-methyl-3H-pyrrolo[2,1-f][1,2,4]triazin-4-one]
IC50 (TNKS1): 0.16 nM
IC50 (TNKS2): 1.3e-10 M
EC50 (Tankyrases): 9.7e-10 M
IC50 (PARP-1): 610 nM

Cc1ccc2c(=O)[nH]c(CCCC(=O)N3CCC(C(=O)c4ccc(C(C)(C)O)cc4)CC3)nn12 [Compound C155, 2-(4-{4-[4-(1-Hydroxy-1-methyl-ethyl)-benzoyl]-piperidin-1-yl}-4-oxo-butyl)-7-methyl-3H-pyrrolo[2,1-f][1,2,4]triazin-4-one]
IC50 (TNKS1): 0.57 nM
IC50 (TNKS2): 3.8e-10 M
EC50 (Tankyrases): 1.6e-08 M
IC50 (PARP-1): 600 nM

COc1ccc(C(=O)C2CCN(C(=O)CCCc3nn4cc(C)cc4c(=O)[nH]3)CC2)cc1F [Compound C158, 2-{4-[4-(3-Fluoro-4-methoxy-benzoyl)-piperidin-1-yl]-4-oxo-butyl}-6-methyl-3H-pyrrolo[2,1-f][1,2,4]triazin-4-one]
IC50 (TNKS1): 0.44 nM
IC50 (TNKS2): 9.2e-10 M
EC50 (Tankyrases): 4.4e-09 M
IC50 (PARP-1): 2100 nM

COc1ccc(C(=O)C2CCN(C(=O)CCCc3nn4cc(C)cc4c(=O)[nH]3)CC2)cn1 [Compound C159, 2-{4-[4-(6-Methoxy-pyridine-3-carbonyl)-piperidin-1-yl]-4-oxo-butyl}-6-methyl-3H-pyrrolo[2,1-f][1,2,4]triazin-4-one]
IC50 (TNKS1): 1.2 nM
IC50 (TNKS2): 2.7e-09 M
EC50 (Tankyrases): 3.6e-08 M
IC50 (PARP-1): 2200 nM

Cc1cc2c(=O)[nH]c(CCCC(=O)N3CCC(c4cnc(N)c(C#N)c4)CC3)nn2c1 [Compound C160, 6-Amino-1′-[4-(6-methyl-4-oxo-3,4-dihydro-pyrrolo[2,1-f][1,2,4]triazin-2-yl)-butyryl]-1′,2′,3′,4′,5′,6′-hexahydro-[3,4′]bipyridinyl-5-carbonitrile]
IC50 (TNKS1): 1.8 nM
IC50 (TNKS2): 1e-08 M
EC50 (Tankyrases): 4.9e-08 M
IC50 (PARP-1): 3300 nM

Cc1cc2c(=O)[nH]c(CCCC(=O)N3CCC(c4cnc(N)c(-c5ncccn5)c4)CC3)nn2c1 [Compound C161, 2-[4-(6-Amino-5-pyrimidin-2-yl-3′,4′,5′,6′-tetrahydro-2′H-[3,4′]bipyridinyl-1′-yl)-4-oxo-butyl]-6-methyl-3H-pyrrolo[2,1-f][1,2,4]triazin-4-one]
IC50 (TNKS1): 0.62 nM
IC50 (TNKS2): 2.9e-09 M
EC50 (Tankyrases): 9.7e-09 M
IC50 (PARP-1): 4300 nM

Cc1cc2c(=O)[nH]c(CCCC(=O)N3CCC(c4nnc(-c5ccccc5)o4)CC3)nn2c1 [Compound C162, 6-Methyl-2-{4-oxo-4-[4-(5-phenyl-[1,3,4]oxadiazol-2-yl)-piperidin-1-yl]-butyl}-3H-pyrrolo[2,1-f][1,2,4]triazin-4-one]
IC50 (TNKS1): 20 nM
IC50 (TNKS2): 3.7e-08 M
EC50 (Tankyrases): 5e-07 M
IC50 (PARP-1): 1400 nM

Cc1cc2c(=O)[nH]c(CCCC(=O)N3CCC(Oc4ccc(C#N)cc4)CC3)nn2c1 [Compound C163, 4-{1-[4-(6-Methyl-4-oxo-3,4-dihydro-pyrrolo[2,1-f][1,2,4]triazin-2-yl)-butyryl]-piperidin-4-yloxy}-benzonitrile]
IC50 (TNKS1): 21 nM
IC50 (TNKS2): 2.5e-08 M
EC50 (Tankyrases): 2e-07 M
IC50 (PARP-1): 1300 nM

Cc1cc2c(=O)[nH]c(CCCC(=O)N3CCC(C(=O)c4ccc(F)cc4)CC3)nn2c1 [Compound C164, 2-{4-[4-(4-Fluoro-benzoyl)-piperidin-1-yl]-4-oxo-butyl}-6-methyl-3H-pyrrolo[2,1-f][1,2,4]triazin-4-one]
IC50 (TNKS1): 0.79 nM
IC50 (TNKS2): 2.8e-09 M
EC50 (Tankyrases): 2.5e-08 M
IC50 (PARP-1): 2200 nM

COc1ccc(C(=O)C2CCN(C(=O)CCCc3nn4cc(C)cc4c(=O)[nH]3)CC2)cc1C [Compound C165, 2-{4-[4-(4-Methoxy-3-methyl-benzoyl)-piperidin-1-yl]-4-oxo-butyl}-6-methyl-3H-pyrrolo[2,1-f][1,2,4]triazin-4-one]
IC50 (TNKS1): 0.22 nM
IC50 (TNKS2): 2.2e-10 M
EC50 (Tankyrases): 1.7e-09 M
IC50 (PARP-1): 2100 nM

Cc1cc2c(=O)[nH]c(CCCC(=O)N3CCC(C(=O)c4ccc(C(C)(C)O)cc4)CC3)nn2c1 [Compound C166, 2-(4-{4-[4-(1-Hydroxy-1-methyl-ethyl)-benzoyl]-piperidin-1-yl}-4-oxo-butyl)-6-methyl-3H-pyrrolo[2,1-f][1,2,4]triazin-4-one]
IC50 (TNKS1): 12 nM
IC50 (TNKS2): 1.7e-08 M
EC50 (Tankyrases): 1.8e-07 M
IC50 (PARP-1): 1400 nM

Cc1cc2c(=O)[nH]c(CCCC(=O)N3CCC(C(=O)c4cnn(C)c4)CC3)nn2c1 [Compound C168, 6-Methyl-2-{4-[4-(1-methyl-1H-pyrazole-4-carbonyl)-piperidin-1-yl]-4-oxo-butyl}-3H-pyrrolo[2,1-f][1,2,4]triazin-4-one]
IC50 (TNKS1): 1 nM
IC50 (TNKS2): 3.5e-09 M
EC50 (Tankyrases): 3.4e-08 M
IC50 (PARP-1): 5800 nM

COc1ccc(C(=O)C2CCN(C(=O)CCCc3nn4cc(F)cc4c(=O)[nH]3)CC2)cc1F [Compound C169, 6-Fluoro-2-{4-[4-(3-fluoro-4-methoxy-benzoyl)-piperidin-1-yl]-4-oxo-butyl}-3H-pyrrolo[2,1-f][1,2,4]triazin-4-one]
IC50 (TNKS1): 0.17 nM
IC50 (TNKS2): 2.2e-10 M
EC50 (Tankyrases): 2.5e-09 M
IC50 (PARP-1): 2200 nM

COc1ccc(C(=O)C2CCN(C(=O)CCCc3nn4cc(F)cc4c(=O)[nH]3)CC2)cn1 [Compound C170, 6-Fluoro-2-{4-[4-(6-methoxy-pyridine-3-carbonyl)-piperidin-1-yl]-4-oxo-butyl}-3H-pyrrolo[2,1-f][1,2,4]triazin-4-one]
IC50 (TNKS1): 0.67 nM
IC50 (TNKS2): 9.9e-10 M
EC50 (Tankyrases): 1.9e-08 M
IC50 (PARP-1): 2800 nM

N#Cc1cc(C2CCN(C(=O)CCCc3nn4cc(F)cc4c(=O)[nH]3)CC2)cnc1N [Compound C171, 6-Amino-1′-[4-(6-fluoro-4-oxo-3,4-dihydro-pyrrolo[2,1-f][1,2,4]triazin-2-yl)-butyryl]-1′,2′,3′,4′,5′,6′-hexahydro-[3,4′]bipyridinyl-5-carbonitrile]
IC50 (TNKS1): 1.7 nM
IC50 (TNKS2): 3.6e-09 M
EC50 (Tankyrases): 4.6e-08 M
IC50 (PARP-1): 6300 nM
